Laboratory results taken from patent US20240051939A1, “BENZOPYRAZOLE INHIBITORS OF SARM1” (Disarm Therapeutics, Inc., priority 2020, published 2024).

Molecular target: SARM1 (Homo sapiens (Human), UniProt Q6SZW1)
Assay: ARM-SAM-TIR SARM1 IC50 assay (NADase activity, NAD+ cleavage)
Assay type: biochemical
Settings: ARM-SAM-TIR lysate 5 μg/mL, 2 h pre-incubation, 5 μM NAD+, RapidFire MS readout
Protocol: This Example describes an assay of ARM-SAM-TIR NADase activity and use of this assay to measure the efficacy of compounds of Formula I to block SARM1 mediated NAD+ cleavage. This assay was optimized in such a way as to characterize the efficacy of the compounds in Formula I to inhibit SARM1 activity and to calculate an IC50 value for each compound. This assay makes use of full length SARM1, which encompasses the ARM, SAM and TIR domains.
NRK1-HEK293T cells were seeded onto 150 cm^2 plates at 20×10^6 cells per plate. The next day, the cells were transfected with 15 μg ARM-SAM-TIR expression plasmid, SEQ ID NO: 1.
The cultures were supplemented with 1 mM NR at time of transfection to minimize toxicity from ARM-SAM-TIR overexpression. […] Protein concentration was determined by the Bicinchoninic (BCA) method and used to normalize lysate concentrations.
The enzymatic assay was performed in a 384-well polypropylene plate in Dulbecco's PBS buffer in a final assay volume of 20 μL. […] The NAD+ and ADPR concentrations were analyzed by a RapidFire High Throughput Mass Spectrometry System (Agilent Technologies, Santa Clara, CA) using an API4000 triple quadrupole mass spectrometer (AB Sciex Framingham, MA).

SARM1, sequence (Q6SZW1 other isoform, or with tags, fused parts or gaps): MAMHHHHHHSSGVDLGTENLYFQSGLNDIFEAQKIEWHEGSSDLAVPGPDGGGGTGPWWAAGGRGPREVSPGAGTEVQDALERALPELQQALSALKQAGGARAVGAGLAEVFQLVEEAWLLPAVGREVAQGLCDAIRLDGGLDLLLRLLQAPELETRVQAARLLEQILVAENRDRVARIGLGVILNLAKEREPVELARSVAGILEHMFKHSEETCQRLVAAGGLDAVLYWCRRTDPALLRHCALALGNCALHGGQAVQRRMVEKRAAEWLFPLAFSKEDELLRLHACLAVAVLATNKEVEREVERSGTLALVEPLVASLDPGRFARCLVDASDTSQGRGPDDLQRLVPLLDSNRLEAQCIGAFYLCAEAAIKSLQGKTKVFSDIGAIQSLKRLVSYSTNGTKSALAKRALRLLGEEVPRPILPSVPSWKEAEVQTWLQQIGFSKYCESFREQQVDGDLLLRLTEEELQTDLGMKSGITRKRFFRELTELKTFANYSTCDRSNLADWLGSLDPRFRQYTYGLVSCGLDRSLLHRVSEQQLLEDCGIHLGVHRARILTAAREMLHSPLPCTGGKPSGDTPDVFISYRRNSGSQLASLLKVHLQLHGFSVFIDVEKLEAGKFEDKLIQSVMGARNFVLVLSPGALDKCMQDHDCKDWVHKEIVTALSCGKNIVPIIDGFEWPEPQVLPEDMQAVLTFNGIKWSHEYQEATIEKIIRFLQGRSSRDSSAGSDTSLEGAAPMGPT

Row | Compound | IC50
1 | Clc1ccc(CCc2n[nH]c3cc(-c4ccncc4)ccc23)cc1 [Compound I-1] | 101 to 500 nM
2 | Clc1ccc(CCc2n[nH]c3cc(-c4ccncc4)ccc23)cn1 [Compound I-2] | 101 to 500 nM
